According to publication PMC4893628, “Chalcone-based Selective Inhibitors of a C4 Plant Key Enzyme as Novel Potential Herbicides” (Scientific Reports, 2016):
Where two headings read alike, the source gives them in different places.

Assays:
Amaranthus retroflexus = assay: In planta growth experiment, A. retroflexus; format: in vivo; conditions: shoots sprayed, 3 mM
Text: Seeds of Amaranthus retroflexus L. (Herbiseed, Twyford, UK) and Brassica napus L. cv. Mozart (Norddeutsche Pflanzenzucht Hans-Georg Lembke KG, Holtsee, Germany) were sown in vermiculite for germination. When cotyledons were fully expanded, seedlings were transplanted into plastic pots with a volume of 0.230 L filled with a substrate containing 50% bottom ash (0–4 mm), 30% peat and 20% pumice gravel (0–4 mm). Plants were watered every other day with 0.03% Hakaphos® Grün solution (Compo Expert GmbH, Münster, Germany) by sub-irrigation. Plants were grown in a climate chamber at 22 °C/20 °C day/night temperature and a day/night length of 16 h/8 h. Relative humidity was adjusted to 70% and light intensity was 320 μmol m^−2 s^−1 PAR (Photosynthetically Active Radiation) at plant level.
When seedlings reached the two-leaf growth stage, plant shoots were sprayed from the top with treatment solutions using spray bottles with a spraying angle of 35° (10 ml, neoLab Migge Laborbedarf-Vertriebs GmbH, Heidelberg, Germany). Treatment solutions were applied from a height of 8.5 cm above the pots. Each pot was sprayed once with a solution volume of 0.135 ml. Treatment solutions contained 2.4% (v/v) DMSO (dimethylsulfoxide, Duchefa Biochemie, Haarlem, the Netherlands), 0.1% (v/v) Tween® and the respective compound at a concentration of 3 mM. The control treatment contained 2.4% (v/v) DMSO, and 0.1% (v/v) Tween20. Further details are given in the Supplementary Information. […]
Experimental design and assessments of in planta experiments
We tested eleven compounds in a first experiment. In a follow-up experiment we tested selected […]
chalcone. Each treatment was repeated 12 times, except for oilseed rape in the second experiment (n=10). Pots were arranged in the growth chamber according to a fully randomized design. Initial growth of the second leaf of A. retroflexus plants was monitored by aquiring images of each plant from above from day zero to day two after treatment. Images were taken […]
from a fixed distance at 90° view angle using the camera Canon EOS 70D equipped with a Canon EF 14 mm/2.8 L II USM lens. Leaf area of single leaves was measured using the ImageJ software31, by drawing the leaf contours using a drawing tablet (Cintiq 22HD, Wacom Europe GmbH, Krefeld, Germany). Conversion of pixel to cm was achieved by using a target of known size inside the image. Six days after the treatment, half of the plants were harvested. Leaf area was assessed using a leaf area meter (LI3100C Area Meter, LI-Cor, Lincoln, Nebraska, USA) and samples were oven-dried at 65°C for seven days to obtain dry weight . Thirteen days after the treatment, this procedure was repeated with the second half of plants.
Chlorophyll fluorescence measurements […]
6 mm leaf discs were cut out of the second leaf and immediately placed into 96-well-plates filled with 300 µL 0.125 % Hoagland’s solution with 1 mM MES-KOH (MES-monohydrate, Merck, Darmstadt, Germany) buffered to a pH of 6.5. The treatment solution contained 1.6 % (v/v) DMSO, 0.1 % (v/v) Tween® 20 and 2',3',4',3,4-Pentahydroxychalcone at a concentration of 2 mM. The control treatment contained 1.6 % (v/v) DMSO, 0.1 % (v/v) Tween® 20. Each leaf disc was treated with 1.5 µL solution placed on top of the leaf discs. Plates were sealed with Parafilm and placed into a climate cabinet with 12h/12h day/night-length and a temperature of 22°C at a light intensity of 130 µmol m-2 s-1. 96 hours after treatment, chlorophyll fluorescence measurements were performed on leaf discs using an Imaging PAM M-Series fluorescence camera (Heinz Walz GmbH, Effeltrich, Germany). Leaf discs were dark adapted for 30 minutes, minimum and maximum chlorophyll fluorescence were obtained and leaf discs were illuminated for 30 minutes

[1] = test system: Corynebacterium glutamicum ATCC13032; assay: Bacterial growth in microscale cultivation, C. glutamicum; format: cell-based; conditions: for activity at 0.4 µM / activity at 4 µM / activity at 40 µM / activity at 8 µM / activity at 80 µM / activity at 400 µM / activity at 160 µM / activity at 0.3 µM / activity at 3 µM / activity at 30 µM: Corynebacterium glutamicum; for activity at 0.4 µM / activity at 4 µM / activity at 40 µM / Lag Phase / activity at 8 µM / activity at 80 µM / activity at 400 µM / activity at 160 µM / activity at 0.3 µM / activity at 3 µM / activity at 30 µM: relative to control
Method: The following bacteria were cultivated in the presence of trans-chalcone derived inhibitors: Corynebacterium glutamicum ATCC13032[43], Escherichia coli K-12 MG1655[44], Pseudomonas putida KT2440[45], and Bacillus subtilis 168[46]. The growth of these bacteria was monitored in flower-well plates shaken at 1200 rpm as backscatter at 620 nm (gain 20) using a BioLector® microscale cultivation system (m2p labs, Baesweiler, Germany). For further experimental details please refer to the Supplementary Information.
medium or the appropriate minimal medium and shaken at 140 rpm overnight. For inoculation of
the main culture, cells equivalent to an optical density at 600 nm of 0.5 (C. glutamicum, E. coli,
and P. putida) or 0.25 (B. subtilis) in 800 µL medium were washed and resuspended in fresh
media. Inhibitor substances were dissolved in DMSO and added to the media to a final
Since the least polar trans-chalcone and 2’-hydroxychalcone precipitated in the growth media at
the highest concentrations, the maximal concentration of these compounds was reduced to 400
µM and 100 µM, respectively. The final backscatter at 620 nm, the growth rate (h-1), and the
duration of the lag phase of all cultures were determined in a BioLector microscale cultivation
system in comparison to negative controls supplemented with the solvent DMSO. A longer lag

[2] = ATCC13032, complex medium, 4 µM, read-out: Final Backscatter
[3] = ATCC13032, complex medium, 4 µM, read-out: Growth rate
[4] = ATCC13032, complex medium, 40 µM, read-out: Final Backscatter
[5] = ATCC13032, complex medium, 40 µM, read-out: Growth rate
[6] = ATCC13032, minimal medium, 4 µM, read-out: Final Backscatter
[7] = ATCC13032, minimal medium, 4 µM, read-out: Growth rate
[8] = ATCC13032, minimal medium, 40 µM, read-out: Final Backscatter
[9] = ATCC13032, minimal medium, 40 µM, read-out: Growth rate
[10] = ATCC13032, complex medium, 400 µM, read-out: Final Backscatter
[11] = ATCC13032, complex medium, 400 µM, read-out: Growth rate
[12] = ATCC13032, minimal medium, 400 µM, read-out: Final Backscatter
[13] = ATCC13032, minimal medium, 400 µM, read-out: Growth rate

| SMILES | Influence on plants (Amaranthus retroflexus) | activity at 4 µM [1, 2] [%] | activity at 4 µM [1, 3] [%] | activity at 40 µM [1, 4] [%] | activity at 40 µM [1, 5] [%] | activity at 4 µM [1, 6] [%] | activity at 4 µM [1, 7] [%] | activity at 40 µM [1, 8] [%] | activity at 40 µM [1, 9] [%] | Lag Phase ([1]; complex medium, 4 µM) | Lag Phase ([1]; complex medium, 40 µM) | Lag Phase ([1]; minimal medium, 4 µM) | Lag Phase ([1]; minimal medium, 40 µM) | activity at 400 µM [1, 10] [%] | activity at 400 µM [1, 11] [%] | activity at 400 µM [1, 12] [%] | activity at 400 µM [1, 13] [%] | Lag Phase ([1]; complex medium, 400 µM) | Lag Phase ([1]; minimal medium, 400 µM) | also measured |
| --- | --- | --- | --- | --- | --- | --- | --- | --- | --- | --- | --- | --- | --- | --- | --- | --- | --- | --- | --- | --- |
| O=C(/C=C/c1ccc(O)c(O)c1)c1ccc(O)cc1O [Compound 8, 2′,4′,3,4-Tetrahydroxy-chalcone] | No | 107 | 134 | 108 | 129 | 101 | 96.6 | 103 | 102 | 95,4% | 84,9% | 98,6% | 100,7% | – | – | – | – | – | – | activity at 0.4 µM ([1]; ATCC13032, complex medium, 0.4 µM, read-out: Final Backscatter): 96.6%; activity at 0.4 µM ([1]; ATCC13032, complex medium, 0.4 µM, read-out: Growth rate): 114%; activity at 0.4 µM ([1]; ATCC13032, minimal medium, 0.4 µM, read-out: Final Backscatter): 99%; activity at 0.4 µM ([1]; ATCC13032, minimal medium, 0.4 µM, read-out: Growth rate): 103%; Lag Phase ([1]; complex medium, 0.4 µM): 109,9%; Lag Phase ([1]; minimal medium, 0.4 µM): 99,3% |
| O=C(/C=C/c1ccccc1)c1ccccc1 [Compound 1, trans-Chalcone] | No | – | – | – | – | – | – | – | – | – | – | – | – | 106 | 103 | 99.5 | 87.5 | 103,7% | 113,6% | activity at 8 µM ([1]; ATCC13032, complex medium, 8 µM, read-out: Final Backscatter): 98.7%; activity at 8 µM ([1]; ATCC13032, complex medium, 8 µM, read-out: Growth rate): 105%; activity at 80 µM ([1]; ATCC13032, complex medium, 80 µM, read-out: Final Backscatter): 104%; activity at 80 µM ([1]; ATCC13032, complex medium, 80 µM, read-out: Growth rate): 103%; activity at 8 µM ([1]; ATCC13032, minimal medium, 8 µM, read-out: Final Backscatter): 99.7%; activity at 8 µM ([1]; ATCC13032, minimal medium, 8 µM, read-out: Growth rate): 99.3%; activity at 80 µM ([1]; ATCC13032, minimal medium, 80 µM, read-out: Final Backscatter): 97%; activity at 80 µM ([1]; ATCC13032, minimal medium, 80 µM, read-out: Growth rate): 97.1%; activity at 160 µM ([1]; ATCC13032, minimal medium, 160 µM, read-out: Final Backscatter): 98.3%; activity at 160 µM ([1]; ATCC13032, minimal medium, 160 µM, read-out: Growth rate): 92.5%; Influence on bacterial growth ([1]; Minimal medium, highest concentration tested (10× IC50) if not stated otherwise): μ↓ (5× IC50); Lag Phase ([1]; complex medium, 8 µM): 100,0%; Lag Phase ([1]; complex medium, 80 µM): 99,5%; Lag Phase ([1]; minimal medium, 8 µM): 100,0%; Lag Phase ([1]; minimal medium, 80 µM): 102,3%; Lag Phase ([1]; minimal medium, 160 µM): 109,9% |
| O=C(/C=C/c1ccc(O)c(O)c1)c1c(O)cc(O)cc1O [Compound 11, 2′,4′,6′,3,4-Pentahydroxy-chalcone] | No | – | – | – | – | – | – | – | – | – | – | – | – | – | – | – | – | – | – | activity at 0.3 µM ([1]; ATCC13032, complex medium, 0.3 µM, read-out: Final Backscatter): 99.6%; activity at 0.3 µM ([1]; ATCC13032, complex medium, 0.3 µM, read-out: Growth rate): 94.6%; activity at 3 µM ([1]; ATCC13032, complex medium, 3 µM, read-out: Final Backscatter): 103%; activity at 3 µM ([1]; ATCC13032, complex medium, 3 µM, read-out: Growth rate): 104%; activity at 30 µM ([1]; ATCC13032, complex medium, 30 µM, read-out: Final Backscatter): 103%; activity at 30 µM ([1]; ATCC13032, complex medium, 30 µM, read-out: Growth rate): 95.3%; activity at 0.3 µM ([1]; ATCC13032, minimal medium, 0.3 µM, read-out: Final Backscatter): 100%; activity at 0.3 µM ([1]; ATCC13032, minimal medium, 0.3 µM, read-out: Growth rate): 104%; activity at 3 µM ([1]; ATCC13032, minimal medium, 3 µM, read-out: Final Backscatter): 95.1%; activity at 3 µM ([1]; ATCC13032, minimal medium, 3 µM, read-out: Growth rate): 105%; activity at 30 µM ([1]; ATCC13032, minimal medium, 30 µM, read-out: Final Backscatter): 96.2%; activity at 30 µM ([1]; ATCC13032, minimal medium, 30 µM, read-out: Growth rate): 104%; Lag Phase ([1]; complex medium, 0.3 µM): 97,0%; Lag Phase ([1]; complex medium, 3 µM): 97,0%; Lag Phase ([1]; complex medium, 30 µM): 98,5%; Lag Phase ([1]; minimal medium, 0.3 µM): 99,3%; Lag Phase ([1]; minimal medium, 3 µM): 98,5%; Lag Phase ([1]; minimal medium, 30 µM): 98,5% |
| O=C(/C=C/c1ccccc1)c1ccc(O)cc1O [Compound 4, 2′,4′-Dihydroxychalcone] | No | 101 | 113 | 105 | 115 | 102 | 98.9 | 100 | 95.5 | 97,4% | 96,2% | 98,7% | 100,0% | 107 | 91.6 | 110 | 65.2 | 116,6% | 169,9% | – |
